SMILES strings stand for the structures. Where a SMILES comes first, the peptide text is derived from it. The star is where a group is joined. Succinyl(4-O-cholesteryl) = CC(C)CCC[C@@H](C)[C@H]1CC[C@H]2[C@@H]3CC=C4C[C@@H](OC(=O)CCC(=O)*)CC[C@]4(C)[C@H]3CC[C@]12C

The subject of one test is hMPV B1. The format is cell-based. Conditions: Vero cells, plaque reduction. As to the method: (§1) African green monkey kidney cells (Vero) were sourced from the ATCC, with catalog number CCL-81. The cells were cultured in a DMEM culture solution in which 10% fetal bovine serum, 1% non-essential amino acids, 1% sodium pyruvate, 1% L-glutamine, 100 U/ml penicillin, and 100 μg/ml streptomycin were added.
(§2) A hMPV plaque experiment culture medium consisted of an Opti-MEM culture solution added with 1% non-essential amino acids, 100 U/mL penicillin, and 100 μg/mL streptomycin.
(§3) hMPV virus strains A2 and B1 were constructed by WuXi App Tec.
(§4) This study used a plaque reduction experiment to detect the in-vitro activity of a test sample against the hMPV virus strains A2 and B1.
(§5) The test sample and an experimental system were tested at 8 concentrations in duplicated wells. The Vero cells were digested with trypsin and then diluted to a concentration of 400,000 cells per milliliter by using a cell culture solution containing 2% serum. The diluted cells were added to a 96-well cell test board, with 100 μL per well, corresponding to 40000 cells per well. The cells were cultured overnight in a 37° C. incubator with 5% CO2.
(§6) On the second day, the test sample was diluted in an experimental culture medium at a fold ratio. The sample diluted at a fold ratio and an equal volume of virus (approximately 200 PFU per well) were well mixed and incubated at 33° C. in 5% CO2 for 1 h. Then, the culture solution in the 96-well cell test board was discarded, the sample virus mixed solution (100 μL) was added to the 96-well cell culture plate, and incubated at 37° C. in 5% CO2 for 2 hours. After 2 h, the sample virus mixed solution was discarded, 200 μL of an experiment culture medium containing the test sample with a corresponding concentration was added, and the culture solution contained 0.8% CMC and 5 μg/ml trypsin. A final concentration of DMSO in the culture solution was 0.5%. A system control antibody was directly added to the experiment culture solution containing 0.8% CMC and 5 μg/ml trypsin. A cell control (cells, without compound treatment or viral infection) and a viral control (cell infection virus, without compound treatment) were set. The cells were cultured for 1 day in the 33° C. incubator with 5% CO2.
(§7) The cells were fixed with 4% paraformaldehyde, and then permeabilization was performed with 0.5% Triton X-100. After the plate was washed with DPBS, a hMPV specific antibody (1:2000 dilution) was added and incubated at 37° C. for 1.5 h. Then, a secondary antibody (1:1000 dilution) was added and incubated at 37° C. for 1 hour. The secondary antibody was discarded, a TrueBlue solution was added, dyeing was performed for approximately 10 minutes; and the plate was washed with running water and then air-dried, and the number of spots in each well was counted by using a microplate imaging counter.
(§8) Raw data was used for analyzing the antiviral activity of the test samples. A calculation formula was shown as follows.
(§9) % inhibition rate=100−(sample value-cell control average value)/(virus control average value-cell control average value)×100
(§10) Non-linear fitting analysis was performed on the inhibition rate of the sample by using GraphPad Prism (version 10), so as to calculate an EC50 value for the sample. A fitting formula was log (inhibitor) vs. response-Variable slope (four parameters).

The test system of the next test is hMPV A2. The class given is cell-based. Conditions: Vero cells, plaque reduction. As to the method:
as §1, §2, §3, §4, §5, §6, §7, §8, §9, §10

Another test has as its target T1, hPIV-N51 (139-189) (Human parainfluenza 3 virus, UniProt P06828).
T1 construct: hPIV-N51 (139-189)
Nature of the test: SPR affinity to hPIV-N51 coupled on CM5 chip. The class given is binding. Here is the method:
hMPV and hPIV were two viruses having a typical Class I fusion protein-F protein. An F protein precursor F0 was cracked into F1 and F2 subunits. […] When the compound flowed through a chip surface, changes in an SPR signal were monitored in real time, binding and dissociation processes were recorded, and a binding rate constant (ka) and a dissociation rate constant (kd) were further obtained through kinetic analysis, thereby calculating an equilibrium dissociation constant (KD=kd/ka).
A CM5 chip with a catalog number 29149603, an amino coupling reagent kit with a catalog number BR100050, HBS-EP+Buffer (10×), sodium acetate (pH 4.0), and a 10 mM glycine-HCl buffer (pH 2.0) were all purchased from GE Health.
CM5 chip coupling: Channels 2 and 4 of the CM5 chip were activated for 7 min by using a freshly-prepared mixture of 50 mM Hydroxy succinimide (NHS) and 200 mM 1-(3-Dimethylaminopropyl)-3-ethylcarbodiimide (EDC) according to 1:1; and then, hMPV-N46 or hPIV-N51 was diluted and dissolved with sodium acetate with 4.0 pH to a concentration of 30 μM, with a flow rate of 10 μl/min and time of 600 s. An experimental buffer was HBS-EP+buffer (1×). Finally, the chip was blocked with 1 M ethanolamine. The instrument was set to a temperature of 25° C.
Affinity detection: the buffer used in the experiment was HBS-EP+buffer (1×), and a multi-cycle dynamic mode was used. Channels 1 and 3 of the chip served as blank reference channels; polypeptides to be detected sequentially flowed through Channels 2 and 4 at concentrations of 0 μM, 0.04 µM, 0.12 µM, 0.37 μM, 1.11 µM, 3.33 µM, 10 µM, and 30 μM; the flow rate was 30 μl/min, binding was performed for 180 s, and dissociation was performed for 120 s. Finally, the chip was regenerated by injecting 10 mM glycine (pH 2.0). The instrument was set to a temperature of 25° C.

T1 sequence (P06828 139-189): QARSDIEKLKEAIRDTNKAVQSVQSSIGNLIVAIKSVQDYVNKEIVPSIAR

In general, EC50 refers to the concentration needed to bring the measured effect to its halfway point. Read a low EC50 as higher potency in that assay. As usually defined, the Kd is the constant that tells how readily two partners part at equilibrium. Higher therefore signals a looser complex. Consider `CC[C@H](C)[C@H](NC(=O)[C@H](CCCCN)NC(=O)[C@H](CCCCN)NC(=O)[C@H](CC(C)C)NC(=O)[C@H](CO)NC(=O)[C@H](CCC(=O)O)NC(=O)[C@H](CCC(=O)O)NC(=O)[C@@H](NC(=O)[C@H](CCCCN)NC(=O)[C@H](CCCCN)NC(=O)[C@H](CC(N)=O)NC(=O)[C@@H](NC(=O)[C@H](CCC(=O)O)NC(=O)[C@H](CCC(=O)O)NC(=O)[C@@H](NC(=O)[C@H](CCCCN)NC(=O)[C@H](CCCCN)NC(=O)[C@H](CC(=O)O)NC(=O)[C@H](Cc1ccccc1)NC(=O)[C@H](CCC(=O)O)NC(=O)[C@H](CC(=O)O)NC(=O)[C@H](Cc1c[nH]c2ccccc12)NC(C)=O)[C@@H](C)CC)C(C)C)[C@@H](C)CC)C(=O)N[C@@H](CCC(=O)O)C(=O)N[C@@H](CCC(=O)O)C(=O)N[C@@H](CO)C(=O)N[C@@H](CC(=O)O)C(=O)N[C@@H](CCCCN)C(=O)N[C@@H](CCCCN)C(=O)N[C@@H](CC(C)C)C(=O)N[C@@H](CCC(=O)O)C(=O)N[C@@H](CCC(=O)O)C(=O)N[C@H](C(=O)N[C@@H](CC(N)=O)C(=O)N[C@@H](C)C(=O)N[C@@H](CCC(=O)O)C(=O)N[C@@H](C)C(=O)N[C@@H](C)C(=O)N[C@@H](C)C(=O)N[C@@H](CCCCN)C(=O)N[C@@H](CCCCNC(=O)CCC(=O)O[C@H]1CC[C@@]2(C)C(=CC[C@H]3[C@@H]4CC[C@H]([C@H](C)CCCC(C)C)[C@@]4(C)CC[C@@H]32)C1)C(N)=O)C(C)C` [Compound 40] (Ac-WDEFDKKIEEVNKKIEESLKKIEESDKKLEEVNAEAAAKK(Succinyl(4-O-cholesteryl))-NH2), for which the 50% effective concentration (EC50) in the test with hMPV B1 stood at 7.47 nM; in the test with hMPV A2, 13.8 nM. Besides, the Kd at hPIV-N51 (139-189) stood at 2270 nM.
`CC[C@H](C)[C@H](NC(=O)[C@H](CCCCN)NC(=O)[C@H](CCCCN)NC(=O)[C@H](CC(C)C)NC(=O)[C@H](CO)NC(=O)[C@H](CCC(=O)O)NC(=O)[C@H](CCC(=O)O)NC(=O)[C@@H](NC(=O)[C@H](CCCCN)NC(=O)[C@H](CCCCN)NC(=O)[C@H](CC(N)=O)NC(=O)[C@@H](NC(=O)[C@H](CCC(=O)O)NC(=O)[C@H](CCC(=O)O)NC(=O)[C@@H](NC(=O)[C@H](CCCCN)NC(=O)[C@H](CCCCN)NC(=O)[C@H](CC(=O)O)NC(=O)[C@H](Cc1ccccc1)NC(=O)[C@H](CCC(=O)O)NC(=O)[C@H](CC(=O)O)NC(=O)[C@H](Cc1c[nH]c2ccccc12)NC(C)=O)[C@@H](C)CC)C(C)C)[C@@H](C)CC)C(=O)N[C@@H](CCC(=O)O)C(=O)N[C@@H](CCC(=O)O)C(=O)N[C@@H](CO)C(=O)N[C@@H](CC(=O)O)C(=O)N[C@@H](CCCCN)C(=O)N[C@@H](CCCCN)C(=O)N[C@@H](CC(C)C)C(=O)N[C@@H](CCC(=O)O)C(=O)N[C@@H](CCC(=O)O)C(=O)N[C@H](C(=O)N[C@@H](CC(N)=O)C(=O)N[C@@H](CCC(=O)O)C(=O)N[C@@H](C)C(=O)N[C@@H](C)C(=O)N[C@@H](C)C(=O)N[C@@H](CCCCN)C(=O)N[C@@H](CCCCNC(=O)CCC(=O)O[C@H]1CC[C@@]2(C)C(=CC[C@H]3[C@@H]4CC[C@H]([C@H](C)CCCC(C)C)[C@@]4(C)CC[C@@H]32)C1)C(N)=O)C(C)C` [Compound 41] (Ac-WDEFDKKIEEVNKKIEESLKKIEESDKKLEEVNEAAAKK(Succinyl(4-O-cholesteryl))-NH2): the 50% effective concentration (EC50) in the test on hMPV B1 amounted to 9.46 nM; in the test on hMPV A2, 11.7 nM. On hPIV-N51 (139-189), the Kd was determined as 492 nM.
On to `CC[C@H](C)[C@H](NC(=O)[C@H](CO)NC(=O)[C@H](C)NC(=O)[C@H](CC(=O)O)NC(=O)[C@H](Cc1ccccc1)NC(C)=O)C(=O)N[C@@H](CCC(=O)O)C(=O)N[C@@H](CCC(=O)O)C(=O)N[C@H](C(=O)N[C@@H](CC(N)=O)C(=O)N[C@@H](CCCNC(=N)N)C(=O)N[C@@H](CCCNC(=N)N)C(=O)N[C@H](C(=O)N[C@@H](CCC(=O)O)C(=O)N[C@@H](CCC(=O)O)C(=O)N[C@@H](CO)C(=O)N[C@@H](CC(C)C)C(=O)N[C@@H](CCCNC(=N)N)C(=O)N[C@@H](CCCNC(=N)N)C(=O)N[C@H](C(=O)N[C@@H](CCC(=O)O)C(=O)N[C@@H](CCC(=O)O)C(=O)N[C@@H](CO)C(=O)N[C@@H](CC(=O)O)C(=O)N[C@@H](CCCNC(=N)N)C(=O)N[C@@H](CCCNC(=N)N)C(=O)N[C@@H](CC(C)C)C(=O)N[C@@H](CCC(=O)O)C(=O)N[C@@H](CCC(=O)O)C(=O)N[C@H](C(=O)N[C@@H](CC(N)=O)C(=O)N[C@@H](C)C(=O)N[C@@H](CCC(=O)O)C(=O)N[C@@H](C)C(=O)N[C@@H](C)C(=O)N[C@@H](C)C(=O)N[C@@H](CCCCN)C(=O)N[C@@H](CCCCNC(=O)CCC(=O)O[C@H]1CC[C@@]2(C)C(=CC[C@H]3[C@@H]4CC[C@H]([C@H](C)CCCC(C)C)[C@@]4(C)CC[C@@H]32)C1)C(N)=O)C(C)C)[C@@H](C)CC)[C@@H](C)CC)C(C)C` [Compound 42] (Ac-FDASIEEVNRRIEESLRRIEESDRRLEEVNAEAAAKK(Succinyl(4-O-cholesteryl))-NH2), for which the values for the EC50 in the test on hMPV B1 and in the test with hMPV A2 were 10.1 nM and 26.1 nM, respectively. On hPIV-N51 (139-189), this compound yielded a Kd of 485 nM.
Regarding `CC[C@H](C)[C@H](NC(=O)[C@H](CO)NC(=O)[C@H](C)NC(=O)[C@H](CC(=O)O)NC(=O)[C@H](Cc1ccccc1)NC(=O)[C@H](CCC(=O)O)NC(=O)[C@H](CC(=O)O)NC(=O)[C@H](Cc1c[nH]c2ccccc12)NC(C)=O)C(=O)N[C@@H](CCC(=O)O)C(=O)N[C@@H](CCC(=O)O)C(=O)N[C@H](C(=O)N[C@@H](CC(N)=O)C(=O)N[C@@H](CCCNC(=N)N)C(=O)N[C@@H](CCCNC(=N)N)C(=O)N[C@H](C(=O)N[C@@H](CCC(=O)O)C(=O)N[C@@H](CCC(=O)O)C(=O)N[C@@H](CO)C(=O)N[C@@H](CC(C)C)C(=O)N[C@@H](CCCNC(=N)N)C(=O)N[C@@H](CCCNC(=N)N)C(=O)N[C@H](C(=O)N[C@@H](CCC(=O)O)C(=O)N[C@@H](CCC(=O)O)C(=O)N[C@@H](CO)C(=O)N[C@@H](CC(=O)O)C(=O)N[C@@H](CCCNC(=N)N)C(=O)N[C@@H](CCCNC(=N)N)C(=O)N[C@@H](CC(C)C)C(=O)N[C@@H](CCC(=O)O)C(=O)N[C@@H](CCC(=O)O)C(=O)N[C@H](C(=O)N[C@@H](CCC(=O)O)C(=O)N[C@@H](C)C(=O)N[C@@H](C)C(=O)N[C@@H](C)C(=O)N[C@@H](CCCCN)C(=O)N[C@@H](CCCCNC(=O)CCC(=O)O[C@H]1CC[C@@]2(C)C(=CC[C@H]3[C@@H]4CC[C@H]([C@H](C)CCCC(C)C)[C@@]4(C)CC[C@@H]32)C1)C(N)=O)C(C)C)[C@@H](C)CC)[C@@H](C)CC)C(C)C` [Compound 43] (Ac-WDEFDASIEEVNRRIEESLRRIEESDRRLEEVEAAAKK(Succinyl(4-O-cholesteryl))-NH2), the results for the concentration for a half-maximal effect (EC50) with hMPV B1 and in the test with hMPV A2 were 8.01 nM and 16.8 nM, respectively. On hPIV-N51 (139-189), this compound came in with a Kd of 5720 nM.
